Test results published in paper PMC12491701, “Discovery of an APP-selective BACE1 inhibitor for Alzheimer's disease” (Neurotherapeutics, 2025).
pEC50, pIC50: −log10 of the molar value. Entries after “also recorded” stand apart in the source; their conditions may differ.

Key:
BACE2 = molecular target: T1, BACE2 (Homo sapiens, UniProt Q9Y5Z0); assay: BACE2 activity assay; type: biochemical
T1 construct: purchased R&D Systems 4097-AS
T1 sequence (Q9Y5Z0 63-518): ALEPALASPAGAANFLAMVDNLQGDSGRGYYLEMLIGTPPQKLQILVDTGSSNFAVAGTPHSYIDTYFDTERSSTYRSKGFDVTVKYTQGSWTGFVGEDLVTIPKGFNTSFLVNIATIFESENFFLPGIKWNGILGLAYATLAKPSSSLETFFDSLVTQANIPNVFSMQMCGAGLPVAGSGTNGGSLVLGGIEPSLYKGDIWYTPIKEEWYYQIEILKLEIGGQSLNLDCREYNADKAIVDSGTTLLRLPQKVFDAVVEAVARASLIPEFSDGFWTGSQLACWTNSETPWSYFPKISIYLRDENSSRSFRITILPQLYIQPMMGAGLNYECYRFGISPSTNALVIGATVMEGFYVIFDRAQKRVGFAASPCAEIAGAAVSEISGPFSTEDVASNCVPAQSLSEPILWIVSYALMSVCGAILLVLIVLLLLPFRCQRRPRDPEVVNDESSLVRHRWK
Description: The effects of candidate ASBIs on BACE2 activity was assessed using the R&D Systems BACE2 activity assay kit (Catalog #: 4097-AS and ES010) formatted from to the manufacturers. For the assay, 4 μL of assay buffer was added to each well, followed by 2 μL of BACE2 diluted in assay buffer to 10 ng/µL.
Then, 2 μL of inhibitor, at the appropriate concentrations were added to the wells and incubated for 30 minutes at room temperature. For all dilutions of inhibitor, drug stock solutions of 10 mM in DMSO were diluted to 50 μM in water; subsequent dilutions were in 0.5% DMSO. Afterwards, 2 μL of fluorogenic BACE2 substrate, diluted to 50 μM in assay buffer, were added to each well, after which the signal generated was read every 30 minutes at 25 °C for 2 hr (Fig S2).
FAH65 and its enantiomers at 10 mM in 100% DMSO was diluted in PBS pH 7.4 to 100, 10, 1, and 0.1 µM; plus, a vehicle-only control. The solutions were incubated at 37 °C for 90 min and centrifuged at 16K x g for 5 min. An aliquot of each supernatant was analyzed by LC-MS/MS. A standard curve was generated by plotting the known amount of analyte per standard in DMSO vs. chromatographic peak […]
Kinetic solubility (µM) was calculated using the trendline equation with maximum chromatographic peak area observed in the aqueous sample. (Table S3)
Liver microsome stability assay […]

eAPP = eAPP (Homo sapiens, UniProt P05067); assay: APP binding by surface plasmon resonance (SPR); details: SPR, in words
Description: The interaction of FAH3, 17 and 65 were evaluated using the SPR protocol described previously in Descamps et al., [26].
For these pilot experiments eAPP as described in Descamps et al (26) is crosslinked to a the CM5 Biacore chip. FAH3 at various concentration was used in the flow through the chip, and the plasmon resonance signal was determined using a Biacore T100. The raw data uncorrected for contribution of running buffer is fit to equilibrium binding data and corrected for the contribution of the running buffer to
For FAH17 and FAH65-APP binding was determined using SPR to determine competition with BSA that non-specifically binds to the eAPP-Biacore chip.

[1] = molecular target: T2, potassium channel hERG (human) (Homo sapiens, UniProt Q12809); assay: hERG [3H] dofitilide binding assay
T2 construct: Eurofins (CEREP PanLabs)
Text: The raw data uncorrected for contribution of
Animals were euthanized at
biochemical analyses (Fig. S3).
at Lotus Separations (Princeton, NJ).

T2 sequence (Q12809 whole entry): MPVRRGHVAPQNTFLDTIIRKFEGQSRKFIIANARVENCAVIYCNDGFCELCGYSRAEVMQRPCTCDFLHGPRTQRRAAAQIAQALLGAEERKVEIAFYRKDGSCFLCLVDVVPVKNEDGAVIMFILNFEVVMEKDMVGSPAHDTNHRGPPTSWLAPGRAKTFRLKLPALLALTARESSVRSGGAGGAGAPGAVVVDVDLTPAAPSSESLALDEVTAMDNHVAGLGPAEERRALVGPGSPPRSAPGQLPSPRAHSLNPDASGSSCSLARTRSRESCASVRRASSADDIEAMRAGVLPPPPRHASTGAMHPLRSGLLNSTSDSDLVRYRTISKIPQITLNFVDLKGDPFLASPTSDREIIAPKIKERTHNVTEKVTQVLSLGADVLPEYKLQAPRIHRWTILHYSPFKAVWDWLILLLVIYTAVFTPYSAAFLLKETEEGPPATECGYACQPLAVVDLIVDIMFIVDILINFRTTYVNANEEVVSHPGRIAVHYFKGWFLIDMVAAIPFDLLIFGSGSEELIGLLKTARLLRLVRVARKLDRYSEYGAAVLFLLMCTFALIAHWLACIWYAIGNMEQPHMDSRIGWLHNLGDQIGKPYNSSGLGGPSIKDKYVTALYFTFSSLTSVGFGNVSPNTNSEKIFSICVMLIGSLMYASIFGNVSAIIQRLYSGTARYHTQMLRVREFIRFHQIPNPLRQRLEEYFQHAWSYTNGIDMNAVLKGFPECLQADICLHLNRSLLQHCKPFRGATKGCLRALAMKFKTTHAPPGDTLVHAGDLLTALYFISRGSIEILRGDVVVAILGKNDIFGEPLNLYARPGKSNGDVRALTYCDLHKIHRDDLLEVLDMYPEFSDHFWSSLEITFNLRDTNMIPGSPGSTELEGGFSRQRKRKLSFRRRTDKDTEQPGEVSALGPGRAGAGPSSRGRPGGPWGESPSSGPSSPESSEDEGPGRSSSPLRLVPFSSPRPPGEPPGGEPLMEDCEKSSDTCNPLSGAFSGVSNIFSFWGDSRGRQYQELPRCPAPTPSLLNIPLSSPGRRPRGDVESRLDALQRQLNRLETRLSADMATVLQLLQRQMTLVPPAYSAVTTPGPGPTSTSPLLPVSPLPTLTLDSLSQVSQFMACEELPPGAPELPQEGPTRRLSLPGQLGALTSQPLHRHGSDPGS
eAPP, sequence (P05067 18-701): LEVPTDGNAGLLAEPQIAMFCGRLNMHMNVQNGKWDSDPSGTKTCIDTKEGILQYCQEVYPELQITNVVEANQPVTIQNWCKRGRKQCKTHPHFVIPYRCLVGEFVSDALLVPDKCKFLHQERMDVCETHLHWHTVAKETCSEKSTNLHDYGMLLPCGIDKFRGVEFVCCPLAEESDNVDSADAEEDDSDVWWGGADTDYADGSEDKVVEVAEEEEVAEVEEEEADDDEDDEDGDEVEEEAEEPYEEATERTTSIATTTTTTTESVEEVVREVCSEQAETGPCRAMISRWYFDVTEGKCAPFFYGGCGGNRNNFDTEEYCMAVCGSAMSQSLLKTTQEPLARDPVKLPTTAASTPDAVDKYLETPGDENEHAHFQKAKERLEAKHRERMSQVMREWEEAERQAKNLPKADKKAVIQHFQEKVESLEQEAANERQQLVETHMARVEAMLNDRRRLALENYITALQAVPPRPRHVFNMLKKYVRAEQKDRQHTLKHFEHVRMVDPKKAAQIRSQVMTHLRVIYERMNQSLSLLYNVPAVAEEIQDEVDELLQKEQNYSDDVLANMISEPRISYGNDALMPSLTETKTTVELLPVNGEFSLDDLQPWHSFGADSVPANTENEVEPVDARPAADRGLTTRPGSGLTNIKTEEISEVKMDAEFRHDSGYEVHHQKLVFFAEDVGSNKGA

With `Cc1cc(C2(c3cccc(-c4cncnc4)c3)N=C(N)N(C)C2=O)ccc1OC(F)F` (centres unmarked) [FAH65] as the compound, how does the pIC50 (BACE2) read?
Its pIC50 is under 6.00.

What about the “inhibition of BACE2 activity” value (BACE2; in words) of the same compound?
The value was “no inhibition; also recorded: did not inhibit”.

What about the “binding to eAPP” value (eAPP) of the same compound?
The value was “relative to BSA but no KD”.

And the pEC50 [1]?
Its pEC50 is under 5.00.

And the pIC50 [1]?
Its pIC50 is under 5.00.
